Experimental data: patent US8133871B2, “Dihydropseudoerythromycin derivatives” (The Kitasato Institute, priority 2005, dated 2012)
≈ marks a conversion by molar mass, not a printed value. Where two headings read alike, the source gives them in different places.

Columns and labels:
[1] = test system: THP-1 cells; experiment: THP-1 differentiation induction-promoting activity; format: cell-based; details: Homo sapiens, THP-1; lowest concentration necessary to show 50% activity relative to the activity value of erythromycin A at 100 μM; PMA 1-2 μM, 72-96 hr
Description: As one index of the anti-inflammatory action of the compound of the present invention, the differentiation induction-promoting activity of THP-1 cell was measured. The measurement was performed as shown below.
THP-1 cells (ATCC No. TIB-202) were adjusted to a concentration of 2×10^5 cells/ml with a medium (RPMI 1640), PMA was added thereto to a final concentration of 1-2 μM, and the mixture was dispensed to each well of a 96 well plate by 100 μl. A solution (100 μl) containing a test substance was adjusted to an appropriate concentration with the medium and added to each well. The mixture was stirred by gently shaking the plate, and incubated under 37° C., 5% CO2 conditions for 72-96 hr. Each well was washed with PBS, a medium containing the viable cell measurement reagent SF (Nacalai Tesque) was added at 100 μl/well and the mixture was incubated under the conditions of 37° C., 5% CO2 for 3-5 hr. The absorbance was measured with a plate reader.
In the Table, the activity value is the lowest concentration necessary for the test compound to show a 50% activity value relative to the activity value of erythromycin A at 100 μM in this experiment.
THP-1 differentiation induction-promoting activity: The lowest concentration necessary for each compound to show 50% activity relative to the activity value of erythromycin A at 100 μM.

[2] = test system: S. aureus 8325 (pEP2104); experiment: antibacterial activity, MIC (NCCLS method); format: cell-based; details: Staphylococcus aureus
Description: (§1) The antibacterial activity of the compound of the present invention and erythromycin were measured according to the antibacterial sensitivity measurement method of the US National Committee for Clinical Laboratory Standards (NCCLS). The values of minimum inhibitory concentration (MIC) (μg/ml) of each compound against bacteria are shown therein.

[3] = test system: E. faecalis ATCC21212; experiment: antibacterial activity, MIC (NCCLS method); format: cell-based; details: Enterococcus faecalis
Description: as §1

[4] = test system: S. marcescens IFO12648; experiment: antibacterial activity, MIC (NCCLS method); format: cell-based; details: Serratia marcescens
Description: as §1

[5] = test system: A. calcoaceticus IFO2552; experiment: antibacterial activity, MIC (NCCLS method); format: cell-based; details: Acinetobacter calcoaceticus
Description: as §1

[6] = test system: S. epidermidis IFO12648; experiment: antibacterial activity, MIC (NCCLS method); format: cell-based; details: Staphylococcus epidermidis
Description: as §1

[7] = test system: M. luteus ATCC9341; experiment: antibacterial activity, MIC (NCCLS method); format: cell-based; details: Micrococcus luteus
Description: as §1

[8] = test system: S. aureus Smith; experiment: antibacterial activity, MIC (NCCLS method); format: cell-based; details: Staphylococcus aureus
Description: as §1

[9] = test system: S. aureus FDA209P; experiment: antibacterial activity, MIC (NCCLS method); format: cell-based; details: Staphylococcus aureus
Description: as §1

[10] = test system: E. aerogen NCTC10006; experiment: antibacterial activity, MIC (NCCLS method); format: cell-based
Description: as §1

[11] = test system: K. pneumoniae NCTN9632; experiment: antibacterial activity, MIC (NCCLS method); format: cell-based; details: Klebsiella pneumoniae
Description: as §1

[12] = test system: E. coli NIHJ JC-2; experiment: antibacterial activity, MIC (NCCLS method); format: cell-based; details: Escherichia coli, NIHJJC2
Description: as §1

[13] = test system: trinitrobenzene sulfonate (TNBS)-induced colitis; experiment: TNBS-induced colitis in rats, damage of the large intestine scored by the method of Wallace et al.; format: in vivo; details: rat TNBS colitis, oral, control 4.27 ± 0.38
Description: As an index of the treatment effect of the compound of the present invention on ulcerative colitis and Crohn's disease, an action on trinitrobenzene sulfonate (hereinafter to be indicated as TNBS)-induced colitis was examined using rats. Using 8-week-old male SD rats under pentobarbital anesthesia, TNBS solution was injected into the rectum of animals after fasting for 24 hr or longer and abstaining from water for 5 hr or longer. After injection, a silicone stopper was inserted into the anus to perform a treatment for 3.5-4 hr, whereby a colitis model was prepared. Two days after TNBS administration, model animals were selected based on the fecal occult blood score (fecal occult blood slide 5 shionogi II, Shionogi & Co. Ltd.), body weight and body weight changes, feeding condition, observation score of around anus and bleeding. A test drug was orally administered to the model animals two times a day for 6 days. On the next day of the final drug administration, the large intestine (about 15 cm from the anus) was removed after decapitation and exsanguination, and the level of damage was scored by the method of Wallace et al. (Wallace, J. L. et al, Inhibition of leukotriene synthesis markedly accelerates healing in a rat model of inflammatory bowel disease. Gastroenterology 96, 2936 (1989)), based on which the efficacy was evaluated.

[14] = M. luteus ATCC9341 2002.1.31, read-out: MIC
[15] = dose 10 × 2 (mg/kg)/day for 6 days
[16] = dose 30 × 2 (mg/kg)/day for 6 days
[17] = E. faecalis ATCC21212 2002.1.31, read-out: MIC
[18] = A. calcoaceticus IFO2552 2002.2.1, read-out: MIC
[19] = S. epidermidis IFO12648 2002.1.31, read-out: MIC
[20] = S. aureus Smith 2002.1.31, read-out: MIC
[21] = S. aureus FDA209P 2002.1.31, read-out: MIC
[22] = K. pneumoniae NCTN9632 2002.1.31, read-out: MIC
[23] = E. coli NIHJ JC-2 2002.1.31, read-out: MIC

Row | Structure (SMILES) | minimal effective concentration [1] [µM] | MIC [2] [µg/mL] | MIC ([3]; ATCC21212) [µg/mL] | MIC ([4]; IFO12648) [µg/mL] | MIC ([5]; IFO2552) [µg/mL] | MIC ([6]; IFO12648) [µg/mL] | MIC [7, 14] [µg/mL] | MIC [8] [µg/mL] | MIC ([9]; FDA209P) [µg/mL] | MIC [10] [µg/mL] | MIC ([11]; NCTN9632) [µg/mL] | MIC [12] [µg/mL] | MIC ([7]; ATCC9341) [µg/mL] | Inflammation score in ulcer [13, 15] | Inflammation score in ulcer [13, 16] | MIC [3, 17] [µg/mL] | MIC [5, 18] [µg/mL] | MIC [6, 19] [µg/mL] | MIC [8, 20] [µg/mL] | MIC [9, 21] [µg/mL] | other results
1 | CC[C@@H](O)[C@@](C)(O)[C@@H]1OC(=O)[C@H](C)[C@@H](O[C@H]2CC(C)(OC)[C@@H](O)C(C)O2)[C@H](C)[C@@H](O[C@@H]2OC(C)CC(N(C)C)C2O)[C@@]2(C)CC(C)C(O2)[C@@H]1C (stereo partly shown) [EM900, 9-dihydro-pseudoerythromycin A 6,9-epoxide] | 30 | > 128 | > 128 | > 128 | > 128 | > 128 | 128 (≈ 178 µM) | > 128 | > 128 | > 128 | > 128 | > 128 | – | – | – | – | – | – | – | – | –
2 | CC[C@@H](O)[C@@](C)(O)[C@@H]1OC(=O)[C@H](C)[C@@H](O[C@H]2CC(C)(OC)[C@@H](O)C(C)O2)[C@H](C)[C@@H](O[C@@H]2OC(C)CC(NC)C2O)[C@@]2(C)CC(C)C(O2)[C@@H]1C (stereo partly shown) [EM901, de(3′-N-methyl)-9-dihydro-pseudoerythromycin A 6,9-epoxide] | 30 | > 128 | > 128 | > 128 | > 128 | > 128 | – | > 128 | > 128 | > 128 | > 128 | > 128 | > 128 | – | – | – | – | – | – | – | –
3 | CC[C@@H](O)[C@@](C)(O)[C@@H]1OC(=O)[C@H](C)[C@@H](O[C@H]2CC(C)(OC)[C@@H](O)C(C)O2)[C@H](C)[C@H](O[C@@H]2OC(C)CC(N(C)Cc3ccc(Cl)cc3)C2O)[C@@]2(C)CC(C)C(O2)[C@@H]1C (stereo partly shown) [EM905, de(3′-N-methyl)-3′-N-(p-chlorobenzyl)-9-dihydro-pseudoerythromycin A 6,9-epoxide] | 3 | > 128 | > 128 | > 128 | > 128 | > 128 | – | > 128 | > 128 | > 128 | > 128 | > 128 | > 128 | 3.29 ± 0.22 | 2.67 ± 0.40 | – | – | – | – | – | –
4 | CC[C@@H](O)[C@@](C)(O)[C@@H]1OC(=O)[C@H](C)[C@@H](O[C@H]2CC(C)(OC)[C@@H](O)C(C)O2)[C@H](C)[C@@H](O[C@@H]2OC(C)CC(N3CCOCC3)C2O)[C@]2(C)CC(C)C(O2)[C@@H]1C (stereo partly shown) [EM914, de(3′-dimethylamino)-3′-morpholino-9-dihydro-pseudoerythromycin A 6,9-epoxide] | 100 | > 128 | > 128 | > 128 | > 128 | – | – | > 128 | > 128 | > 128 | > 128 | > 128 | – | 2.93 ± 0.41 | 2.69 ± 0.33 | – | – | – | – | – | –
5 | CC[C@H]1OC(=O)O[C@@]1(C)[C@@H]1OC(=O)[C@H](C)C(=O)[C@H](C)[C@@H](O[C@@H]2OC(C)CC(N(C)Cc3ccc(Cl)cc3)C2O)[C@]2(C)CC(C)C(O2)[C@@H]1C (stereo partly shown) [EM939, de(3′-N-methyl)-3′-N-(p-chlorobenzyl)-de(3-O-cladinosyl)-9-dihydro-3-keto-pseudoerythromycin A 6,9-epoxide 12,13-carbonate] | 3 | > 64 | – | – | – | – | > 64 | – | – | – | – | – | – | – | – | > 64 | > 64 | > 64 | > 64 | > 64 | MIC ([4]; S. marcescens IFO12648 2002.2.1, read-out: MIC): > 64 µg/mL; MIC ([10]; E. aerogen NCTC10006 2002.2.1, read-out: MIC): > 64 µg/mL; MIC [11, 22]: > 64 µg/mL; MIC [12, 23]: > 64 µg/mL
6 | CC[C@H]1OC(=O)[C@H](C)[C@@H](O[C@H]2C[C@@](C)(OC)[C@@H](O)[C@H](C)O2)[C@H](C)[C@@H](O[C@@H]2O[C@H](C)C[C@H](N(C)C)[C@H]2O)[C@](C)(O)C[C@@H](C)C(=O)[C@H](C)[C@@H](O)[C@]1(C)O [erythromycin] | – | 64 (≈ 87.2 µM) | – | 128 (≈ 174 µM) | – | – | ≤ 0.5 | – | – | 128 (≈ 174 µM) | – | – | – | – | – | 1 (≈ 1.36 µM) | 4 (≈ 5.45 µM) | ≤ 0.5 | ≤ 0.5 | ≤ 0.5 | MIC [11, 22]: 32 µg/mL (≈ 43.6 µM); MIC [12, 23]: 64 µg/mL (≈ 87.2 µM)
